Experimental data as given in ChEMBL document CHEMBL5505997, “Synthesis and biological evaluation of novel peptidomimetic inhibitors of the coronavirus 3C-like protease” (Eur J Med Chem, 2024).

Experiments:
SARS-CoV-2 [1] = assay: Antiviral activity against SARS-CoV-2 infected in Vero cells assessed as reduction in viral yield measured after 48 hrs by qRT-PCR analysis; format: functional, organism-based; conditions: Severe acute respiratory syndrome coronavirus 2, Vero
Human coronavirus OC43 = assay: Antiviral activity against Human coronavirus OC43 infected in Vero cells assessed as reduction in viral yield preincubated with virus for 1 hr followed by washout and compound treatment and measured after 3 days by qRT-PCR analysis; format: functional, organism-based; conditions: Betacoronavirus 1, Vero
[2] = Cytotoxicity against human PBMC cells assessed as reduction in cell viability; format: toxicity, cell-based; conditions: pbmc
CCRF-CEM = assay: Cytotoxicity against human CEM cells assessed as reduction in cell viability; format: toxicity, cell-based; conditions: ccrf-cem
[3] = Cytotoxicity against African green monkey Vero cells assessed as reduction in cell viability; format: toxicity, cell-based; conditions: chlorocebus sabaeus, vero
Huh-7 = assay: Cytotoxicity against human Huh-7 cells assessed as reduction in cell viability; format: toxicity, cell-based; conditions: huh-7
[4] = Solubility of compound in PBS; format: physicochemical; conditions: buffer
SARS-CoV-2 [5] = assay: Antiviral activity against SARS-CoV-2 infected in human Caco-2 cells assessed as reduction in viral yield measured after 72 hrs by qRT-PCR analysis; format: functional, organism-based, Severe acute respiratory syndrome coronavirus 2
SARS-CoV-2 [6] = assay: Antiviral activity against SARS-CoV-2 infected in human Calu-3 cells assessed as reduction in viral yield measured after 72 hrs by qRT-PCR analysis; format: functional, organism-based, Severe acute respiratory syndrome coronavirus 2; conditions: Severe acute respiratory syndrome coronavirus 2, Calu-3; time 72 hrs
Caco-2 = assay: Cytotoxicity against human Caco-2 cells assessed as reduction in cell viability; format: toxicity, cell-based; conditions: caco-2
Calu-3 = assay: Cytotoxicity against human Calu-3 cells assessed as reduction in cell viability; format: toxicity, cell-based; conditions: calu-3
SARS-CoV-2 [7] = assay: Antiviral activity against SARS-CoV-2 hCoV-19/USA/GA-EHC-2811C/2021 (Omicron B.1.1.529) infected in human Calu-3 cells assessed as reduction in viral yield measured after 48 hrs by qRT-PCR analysis; format: functional, organism-based; conditions: Severe acute respiratory syndrome coronavirus 2, hCoV-19/USA/GA-EHC-2811C/2021 (Omicron B.1.1.529)
SARS-CoV-2 [8] = assay: Selectivity ratio of EC50 for antiviral activity against SARS-CoV-2 infected in Vero cells to EC50 for antiviral activity against SARS-CoV-2 infected in human Caco-2 cells; format: functional, Severe acute respiratory syndrome coronavirus 2
SARS-CoV-2 [9] = assay: Selectivity ratio of EC50 for antiviral activity against SARS-CoV-2 infected in Vero cells to EC50 for antiviral activity against SARS-CoV-2 infected in human Calu-3 cells; format: functional, Severe acute respiratory syndrome coronavirus 2
SARS-CoV-2 [10] = assay: Antiviral activity against SARS-CoV-2 hCoV-19/USA-WA1/2020 Washington strain infected in Normal human bronchial/tracheal epithelial cells cultured in air-liquid interface media assessed as reduction in viral yield pretreated with compound followed by viral infection for 4 hrs post washout and measured 3 days after virus removal by qRT-PCR analysis; format: functional, organism-based; conditions: Severe acute respiratory syndrome coronavirus 2, hCoV-19/USA-WA1/2020 Washington, Epithelial cell
[11] = target: Replicase polyprotein 1ab (Severe acute respiratory syndrome coronavirus 2, UniProt P0DTD1); assay: Inhibition of amino-terminal His-SUMO tagged SARS-CoV-2 3CLpro using HilyteFluor 488-Glu-Ser-Ala-Thr-Leu-Gln-Ser-Gly-Leu-Arg-Lys-Ala-Lys-QXL 520 as FRET peptide substrate preincubated for 90 mins followed by substrate addition and measured over 30 mins by continuous FRET assay
[12] = target: Replicase polyprotein 1ab (Severe acute respiratory syndrome coronavirus 2) (UniProt P0DTD1); assay: Potency index, ratio of nirmatrelvir IC50 to test compound IC50 for inhibition of amino-terminal His-SUMO tagged SARS-CoV-2 3CLpro using HilyteFluor 488-Glu-Ser-Ala-Thr-Leu-Gln-Ser-Gly-Leu-Arg-Lys-Ala-Lys-QXL 520 as FRET peptide substrate preincubated for 90 mins followed by substrate addition and measured over 30 mins by continuous FRET assay; conditions: time > 120.0 min
[13] = target: Replicase polyprotein 1ab (Severe acute respiratory syndrome coronavirus 2) (UniProt P0DTD1); assay: Binding affinity to SARS-CoV-2 3CLpro assessed as thermal stabilization by measuring fold increase in melting temperature incubated for 60 mins by SYPRO orange dye based thermal shift assay relative to nirmatrelvir
SARS-CoV-2 [14] = assay: Antiviral activity against wild type SARS-CoV-2 WA1 infected in HEK293T cells measured after 48 hrs by Nano-Glo luciferase assay; format: functional, organism-based; conditions: Severe acute respiratory syndrome coronavirus 2, WA1, HEK-293T
SARS-CoV-2 [15] = assay: Antiviral activity against wild type SARS-CoV-2 Omicron BA.1 infected in HEK293T cells measured after 48 hrs by Nano-Glo luciferase assay; format: functional, organism-based; conditions: Severe acute respiratory syndrome coronavirus 2, Omicron BA.1, HEK-293T
[16] = Metabolic stability in human liver microsomes assessed as half life at 1 uM measured after 0 to 90 mins by LC-MS/MS analysis; format: ADME, Microsome; conditions: time 0-90 min
[17] = Metabolic stability in human liver microsomes assessed as reduction in decay rate at 1 uM incubated for 90 mins in presence of ritonavir by LC-MS/MS analysis; format: ADME, Microsome; conditions: 1.5 h
[18] = Metabolic stability in human liver microsomes assessed as half life at 1 uM incubated for 90 mins in presence of ritonavir at 1:1 combination by LC-MS/MS analysis; format: ADME, Microsome; conditions: 1.5 h
[19] = Metabolic stability in human liver microsomes assessed as half life at 1 uM incubated for 90 mins in presence of ritonavir at 1:10 combination by LC-MS/MS analysis; format: ADME, Microsome; conditions: 1.5 h
[20] = target: Replicase polyprotein 1ab (Severe acute respiratory syndrome coronavirus 2) (UniProt P0DTD1); conditions: time 60.0 min
[21] = target: Replicase polyprotein 1ab (Severe acute respiratory syndrome coronavirus 2) (UniProt P0DTD1); conditions: time 60.0 min; remark: listed apart in the source

## Cc1cc(C(=O)N[C@@H](Cc2cccc3ccccc23)C(=O)N[C@@H](CC(C)C)C(=O)N[C@H](C=O)C[C@@H]2CCCNC2=O)no1
SARS-CoV-2 [1]; 48 h
  EC50: 4.6 µM
SARS-CoV-2 [1]; time 48 hrs
  EC90: 9 µM
Human coronavirus OC43
  EC50: 0.1 µM
Human coronavirus OC43; 72 h, time 3 day
  EC90: 0.7 µM
[2]
  CC50: 30.9 µM
CCRF-CEM
  CC50: 13.9 µM
[3]
  CC50: 84.3 µM
Huh-7
  CC50: 32.7 µM
[4]
  solubility: < 10 µg/mL
SARS-CoV-2 [5]; Severe acute respiratory syndrome coronavirus 2, Caco-2, 72 h
  EC50: 0.1 µM
SARS-CoV-2 [5]; Severe acute respiratory syndrome coronavirus 2, Caco-2, time 72 hrs
  EC90: 1.2 µM
SARS-CoV-2 [6]
  EC90: 4.3 µM
Caco-2
  CC50: > 100 µM
Calu-3
  CC50: > 100 µM
SARS-CoV-2 [7]; Calu-3, 48 h
  EC50: 1.1 µM
SARS-CoV-2 [7]; Calu-3, time 48 hrs
  EC90: 3.5 µM
SARS-CoV-2 [8]
  Ratio EC50: 15
SARS-CoV-2 [9]
  Ratio EC50: 3
SARS-CoV-2 [10]
  EC50: 0.6 µM
  EC90: 1.8 µM
[11]
  IC50: 0.166 µM
[12]
  Ratio IC50: 2
[13]
  fold change (FC): 2
SARS-CoV-2 [14]
  EC50: 0.2 µM
SARS-CoV-2 [15]
  EC50: 0.32 µM
[16]
  t1/2: < 5 min
[17]
  Stability: Stable
[18]
  t1/2: > 1.5 h
[19]
  t1/2: > 1.5 h
[20]
  Tm: 69.9 °C
[21]
  ΔTm: 13.9 °C
